Laboratory results reported in article PMC9297976 (Journal of Applied Toxicology, 2021).

Columns and labels:
[1] = system: Japanese medaka (Oryzias latipes); experiment: Fish Short‐Term Reproduction Assay; assay type: in vivo; settings: for GSI Female / GSI Male / HSI Female / HSI Male / Length Female / Length Male / Weight Female / Weight Male: completion of exposure
Japanese medaka = settings: ref Flynn et al. (2018); cited from earlier work
medaka Esr1 (mEsr1) [2] = target: T1, medaka Esr1 (mEsr1) (Oryzias latipes, UniProt P50241); experiment: Medaka Esr1 reporter gene assay, antagonist assay; assay type: cell-based, Japanese medaka (Oryzias latipes); settings: E2 spiked at 0.2 nM (A); MAC = 1.0 × 10^−5 M
T1 sequence (P50241 1-620): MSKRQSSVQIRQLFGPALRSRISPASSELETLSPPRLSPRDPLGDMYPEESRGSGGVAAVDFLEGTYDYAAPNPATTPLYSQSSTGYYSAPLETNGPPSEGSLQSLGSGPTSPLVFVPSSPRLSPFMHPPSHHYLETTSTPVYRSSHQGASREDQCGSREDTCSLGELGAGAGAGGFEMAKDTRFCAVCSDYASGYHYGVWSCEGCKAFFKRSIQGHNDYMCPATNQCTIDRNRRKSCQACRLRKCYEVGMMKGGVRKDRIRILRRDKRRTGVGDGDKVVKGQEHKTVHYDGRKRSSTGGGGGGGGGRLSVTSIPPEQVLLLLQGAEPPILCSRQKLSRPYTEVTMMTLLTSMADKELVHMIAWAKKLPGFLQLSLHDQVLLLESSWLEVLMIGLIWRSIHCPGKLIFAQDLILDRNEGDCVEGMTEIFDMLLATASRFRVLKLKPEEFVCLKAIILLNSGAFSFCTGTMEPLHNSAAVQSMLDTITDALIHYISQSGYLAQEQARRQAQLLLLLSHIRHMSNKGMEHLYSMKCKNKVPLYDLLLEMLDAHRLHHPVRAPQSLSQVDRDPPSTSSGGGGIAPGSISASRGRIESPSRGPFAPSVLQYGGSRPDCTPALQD

medaka ARβ (mArβ) [3] = target: T2, medaka ARβ (mArβ) (Oryzias latipes, UniProt D1MV73); experiment: Medaka ARβ reporter gene assay, agonist assay; assay type: cell-based, Japanese medaka (Oryzias latipes); settings: MAC = 1.0 × 10^−5 M
T2 sequence (D1MV73 1-744): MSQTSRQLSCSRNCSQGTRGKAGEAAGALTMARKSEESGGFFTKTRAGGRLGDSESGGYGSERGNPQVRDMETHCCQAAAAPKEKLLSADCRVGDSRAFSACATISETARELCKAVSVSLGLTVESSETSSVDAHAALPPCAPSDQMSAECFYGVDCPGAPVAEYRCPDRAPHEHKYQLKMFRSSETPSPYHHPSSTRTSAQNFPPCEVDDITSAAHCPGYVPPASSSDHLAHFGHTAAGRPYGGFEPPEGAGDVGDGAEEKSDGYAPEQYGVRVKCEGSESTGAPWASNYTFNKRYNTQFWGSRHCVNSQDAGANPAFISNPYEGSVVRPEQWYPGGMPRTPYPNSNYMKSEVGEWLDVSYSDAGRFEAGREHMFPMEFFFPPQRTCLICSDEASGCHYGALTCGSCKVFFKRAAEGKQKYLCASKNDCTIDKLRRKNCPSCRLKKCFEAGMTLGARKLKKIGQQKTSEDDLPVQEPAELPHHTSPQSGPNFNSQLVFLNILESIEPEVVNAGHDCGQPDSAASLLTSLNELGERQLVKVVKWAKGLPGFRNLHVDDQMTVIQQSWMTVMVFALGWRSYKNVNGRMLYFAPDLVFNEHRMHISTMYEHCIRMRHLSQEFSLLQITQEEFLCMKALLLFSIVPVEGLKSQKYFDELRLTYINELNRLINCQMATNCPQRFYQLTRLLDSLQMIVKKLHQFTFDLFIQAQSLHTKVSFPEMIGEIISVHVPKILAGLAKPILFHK

medaka Esr1 (mEsr1) [4] = target: T1, medaka Esr1 (mEsr1); experiment: cell-based; set-up: species or system Japanese medaka (Oryzias latipes)
medaka ARβ (mArβ) [5] = target: T2, medaka ARβ (mArβ); experiment: Medaka ARβ reporter gene assay, antagonist assay; assay type: cell-based, Japanese medaka (Oryzias latipes); settings: 11‐KT spiked at 10 nM (C); MAC = 1.0 × 10^−5 M
[6] = 598 μg/L measured, 21 d, sig. ↑ vs control
[7] = 952 μg/L measured, 21 d, sig. ↑ vs control
[8] = measured concentration 196 μg/L
[9] = measured concentration 598 μg/L
[10] = measured concentration 952 μg/L

In the case of CCOP(=S)(OCC)Oc1cc(C)nc(C(C)C)n1 [DZ, Diazinon], the “Individuals with symptoms of presumed paralysis of motor function” value ([1]; 38 μg/L) is reported as 12.5%, the Fertility rate ([1]; 38 μg/L measured, 21 d) is reported as 96 ± 0.8% and the “Hepatic VTG, female” value ([1]; 38 μg/L measured, 21 d) is reported as 2,665 ± 1942 ng/mg‐liver. For the same compound, the “Hepatic VTG, male” value ([1]; 38 μg/L measured, 21 d) was 0.13 ± 0.16 ng/mg‐liver, the Mortality ([1]; 38 μg/L measured, 21 d) was 4.2% and the “Mortality, number of dead fish” value ([1]; 38 μg/L measured, 21 d) was 1. The “Number of fertilized eggs (per female per day)” value ([1]; 38 μg/L measured, 21 d) was 18 ± 0.7, the “Number of total eggs (per female per day)” value ([1]; 38 μg/L measured, 21 d) was 19 ± 0.6 and the “SSC female (joint plates with papillary processes)” value (“SSC female” for short) ([1]; 38 μg/L measured, 21 d) was 0 ± 0. For the same compound, the “SSC male (joint plates with papillary processes)” value (from here on “SSC male”) ([1]; 38 μg/L measured, 21 d) was 82 ± 16, the “Fish with symptoms of presumed paralysis of motor function (in words)” value ([1]; 196 μg/L level and above) was “all fish” and the “Hepatic VTG, female” value ([1]; 196 μg/L measured, 21 d) was 1722 ± 1,394 ng/mg‐liver. For the same compound, the “Hepatic VTG, male” value ([1]; 196 μg/L measured, 21 d) was 0.08 ± 0.14 ng/mg‐liver, the Mortality ([1]; 196 μg/L measured, 21 d) was 4.2% and the “Mortality, number of dead fish” value ([1]; 196 μg/L measured, 21 d) was 1. For the same compound, the “SSC female” value ([1]; 196 μg/L measured, 21 d) was 0 ± 0, the “SSC male” value ([1]; 196 μg/L measured, 21 d) was 84 ± 19 and the Fertility rate ([1]; 196 μg/L measured, 21 d, sig. ↓ vs control) was 12 ± 6.3%. For the same compound, the “Hepatic VTG, female” value ([1]; 598 μg/L measured, 21 d) was 661 ± 552 ng/mg‐liver, the “Hepatic VTG, male” value ([1]; 598 μg/L measured, 21 d) was 0.06 ± 0.04 ng/mg‐liver and the “SSC female” value ([1]; 598 μg/L measured, 21 d) was 0 ± 0. For the same compound, the “SSC male” value ([1]; 598 μg/L measured, 21 d) was 89 ± 17, the Mortality [1, 6] was 42% and the “Mortality, number of dead fish” value [1, 6] was 10. The Fertility rate ([1]; 598 μg/L measured, 21 d, sig. ↓ vs control) was 55 ± 6.7%, the “Hepatic VTG, female” value ([1]; 952 μg/L measured, 21 d) was 1,621 ± 1,314 ng/mg‐liver and the “Hepatic VTG, male” value ([1]; 952 μg/L measured, 21 d) was 0.89 ± 1.67 ng/mg‐liver. The “SSC female” value ([1]; 952 μg/L measured, 21 d) was 0 ± 0, the “SSC male” value ([1]; 952 μg/L measured, 21 d) was 89 ± 15 and the Mortality [1, 7] was 58%. For the same compound, the “Mortality, number of dead fish” value [1, 7] was 14, the “Fecundity, number of total eggs (in words)” value ([1]; 21 d) was “statistically significant decrease” and the LOECmVTG ([1]; LOEC on VTG induction in males) was “ND (>952) μg/L”. For the same compound, the LOECREPRO ([1]; LOEC on reproduction (fecundity and/or fertility)) was 196 µg/L, the LOECTOX ([1]; lowest observed effect concentration on mortality) was 196 µg/L and the “GSI Female” value ([1]; measured concentration 38 μg/L) was 12.3 ± 1.3%. For the same compound, the “GSI Male” value ([1]; measured concentration 38 μg/L) was 0.9 ± 0.4%, the “HSI Female” value ([1]; measured concentration 38 μg/L) was 5.3 ± 1.20% and the “HSI Male” value ([1]; measured concentration 38 μg/L) was 2.8 ± 1.70%. For the same compound, the “Length Female” value ([1]; measured concentration 38 μg/L) was 30.7 ± 1.0 mm, the “Length Male” value ([1]; measured concentration 38 μg/L) was 30.1 ± 0.6 mm and the “Weight Female” value ([1]; measured concentration 38 μg/L) was 338 ± 36 mg. The “Weight Male” value ([1]; measured concentration 38 μg/L) was 294 ± 21 mg, the “GSI Female” value [1, 8] was 6.8 ± 3.5% and the “GSI Male” value [1, 8] was 0.6 ± 0.2%. For the same compound, the “HSI Female” value [1, 8] was 2.0 ± 0.70%, the “HSI Male” value [1, 8] was 1.6 ± 0.60% and the “Length Female” value [1, 8] was 28.5 ± 1.1 mm. The “Length Male” value [1, 8] was 28.5 ± 0.6 mm, the “Weight Female” value [1, 8] was 217 ± 19 mg and the “Weight Male” value [1, 8] was 200 ± 14 mg. The “GSI Female” value [1, 9] was 3.3 ± 0.7%, the “GSI Male” value [1, 9] was 0.4 ± 0.1% and the “HSI Female” value [1, 9] was 1.9 ± 0.30%. The “HSI Male” value [1, 9] was 1.2 ± 0.40%, the “Length Female” value [1, 9] was 28.7 ± 0.0 mm and the “Length Male” value [1, 9] was 29.6 ± 0.2 mm. The “Weight Female” value [1, 9] was 203 ± 47 mg, the “Weight Male” value [1, 9] was 190 ± 13 mg and the “GSI Female” value [1, 10] was 6.9 ± 2.4%. For the same compound, the “GSI Male” value [1, 10] was 0.5 ± 0.1%, the “HSI Female” value [1, 10] was 1.6 ± 0.50% and the “HSI Male” value [1, 10] was 1.5 ± 0.60%. For the same compound, the “Length Female” value [1, 10] was 27.5 ± 0.8 mm, the “Length Male” value [1, 10] was 28.3 ± 1.2 mm and the “Weight Female” value [1, 10] was 203 ± 26 mg. The “Weight Male” value [1, 10] was 183 ± 20 mg, the LOEC on fecundity (Japanese medaka) was 2.9 µg/L and the LOEC on growth (Japanese medaka) was 5.2 µg/L. The Antagonistic activity (medaka Esr1 (mEsr1) [2]) was “NE (MAC = 1.0 × 10^−5 M)^(A)”, the Agonistic activity (medaka ARβ (mArβ) [3]) was “NE (MAC = 1.0 × 10^−5 M)” and the “Agonistic activity PC10” value (medaka Esr1 (mEsr1) [4]) was “PC10 = 1.0 × 10^−5 M”. For the same compound, the “In vitro positive: Esr” value (medaka Esr1 (mEsr1) [4]; mode of action in which EC50 or PC10 was obtained in RGA) was “Esr” and the Antagonistic activity (medaka ARβ (mArβ) [5]) was “NE (MAC = 1.0 × 10^−5 M)^(C)”.
